From US11535598B2, “Histone deacetylases (HDACs) inhibitors” (ANNJI PHARMACEUTICAL CO., LTD., priority 2017, dated 2022) come the findings set out here.

Some results are limits rather than exact numbers.

Series [1] has as its system A549. Description: Cell proliferation assay MTT, A549. The note with it: read-out: Cytotoxicity IC50 Lung A549, 72 hr treated.
Protocol: (§5) Cells were seeded in 96-well plates at a density of 5×10^3 cells per well and allowed to attach for 24 h before compound treatment. […] At end of the treatment period 72 h, 20 μl (5 mg/mL) 3-(4,5-dimethylthiazol-2-yl)-2,5-diphenyl-tetrazolium bromide (MTT) reagent was added each well. After 4 h incubation at 37° C., the supernatant was aspirated and the formazan crystals were dissolved in 100 μl of DMSO at 37° C. for 10 min with gentle agitation. The absorbance was measured at 570 nm using the Molecular Devices Microplate Reader. […] IC50 values were calculated from the relative viability values and concentrations by regression analysis.
The subject of series [2] is U87MG. Description: Cell proliferation assay MTT, U87MG. The note with it: read-out: Cytotoxicity IC50 Glioblastoma U87MG, 72 hr treated.
Protocol: as §5
Series [3] deals with LNCap. Description: Cell proliferation assay MTT, LNCaP. To be noted: read-out: Cytotoxicity IC50 Prostate LNCap, 72 hr treated.
Protocol: as §5
The test system of series [4] is PANC1. Nature of the series: Cell proliferation assay MTT, PANC1. To be noted: read-out: Cytotoxicity IC50 Pancreas PANC1, 72 hr treated.
Protocol: as §5
Series [5] concerns HepG2. Description: Cell proliferation assay MTT, HepG2. To be noted: read-out: Cytotoxicity IC50 Liver HepG2, 72 hr treated.
Protocol: as §5
Series [6] relates to Vero. Nature of the series: Cell proliferation assay MTT, Vero normal cells. The note with it: read-out: Cytotoxicity IC50 Monkey normal Vero, 72 hr treated.
Protocol: as §5
Series [7] relates to FHsWe. Description: Cell proliferation assay MTT, FHsWe normal cells. The note with it: read-out: Cytotoxicity IC50 Human normal FHsWe, 72 hr treated.
Protocol: as §5
In series [8] the target is Human HDAC1 (Homo sapiens (Human), UniProt Q13547). Nature of the series: HDAC enzymatic assay, HDAC1. The class given is biochemical. To be noted: 10-dose IC50 mode with a 3-fold serial dilution; read-out: HDAC subtypes IC50 HDAC1. The procedure:
(§1) The IC50 values for aforementioned compounds against HDACs were determined. HDAC 1 to 11 can be assayed by using acetylated AMC-labeled peptide substrate.
(§2) Human HDAC1 GenBank Accession No. NM_004964): Full length with C-terminal GST tag, MW=79.9 kDa, Human HDAC2 (GenBank Accession No. Q92769): Full length with C-terminal His tag, MW=60 kDa. Human HDAC3/NcoR2 (GenBank Accession No. […] for HDAC3, GenBank Accession No. NM_006312 for NcoR2): Complex of human HDAC3, full length with C-terminal His tag, MW=49.7 kDa, and human NCOR2, N-terminal GST tag, MW=39 kDa. Human HDAC6 (GenBank Accession No. BC069243): Full length with N-terminal GST tag, MW=159 kDa. Human HDAC8 (GenBank Accession No. NM018486): Full length, MW=42 kDa, expressed in an E. coli expression system.
(§3) Human HDAC1, Human HDAC2, Human HDAC3/NcoR2, Human HDAC6, Human HDAC10, and Human HDAC11 were all expressed by baculovirus expression system in Sf9 cells.
(§4) 50 μM HDAC substrate. 1% DMSO final. Incubation for 2 hours at 30° C.

Series [9] addresses Human HDAC6 (Homo sapiens (Human), UniProt Q9UBN7). Description: HDAC enzymatic assay, HDAC6. The class given is biochemical. The note with it: 10-dose IC50 mode with a 3-fold serial dilution; read-out: HDAC subtypes IC50 HDAC6. The method, then:
as §1, §2, §3, §4

A short description of series [10]: in vitro. To be noted: human, FHs173We normal cells.
Protocol: as §5
Series [11] is described as follows: in vitro. The note with it: monkey, Vero normal cells.
Protocol: as §5
Series [12] deals with HL60. Nature of the series: Cell proliferation assay MTT, HL60. The note with it: read-out: Cytotoxicity IC50 Leukemia HL60, 72 hr treated.
Protocol: as §5
Series [13] deals with MV4-11. Nature of the series: Cell proliferation assay MTT, MV4-11. The note with it: read-out: Cytotoxicity IC50 Leukemia MV4-11; MTT assay, 72 hr treated.
Protocol: as §5
The test system of series [14] is MOLM13. Nature of the series: Cell proliferation assay MTT, MOLM13. To be noted: read-out: Cytotoxicity IC50 Leukemia MOLM13; MTT assay, 72 hr treated.
Protocol: as §5
For series [15], the target named is Human HDAC8 (Homo sapiens (Human), UniProt Q9BY41). Nature of the series: HDAC enzymatic assay, HDAC8. The class given is biochemical. To be noted: 10-dose IC50 mode with a 3-fold serial dilution; read-out: HDAC subtypes IC50 HDAC8. The method, then:
as §1, §2, §4

In series [16] the target is Human HDAC11 (Homo sapiens (Human), UniProt Q96DB2). Description: HDAC enzymatic assay, HDAC11. The class given is biochemical. To be noted: 10-dose IC50 mode with a 3-fold serial dilution; read-out: HDAC subtypes IC50 HDAC11. The method, then: as §1, §2, §3, §4
Sequence of Human HDAC11 (Q96DB2 whole entry): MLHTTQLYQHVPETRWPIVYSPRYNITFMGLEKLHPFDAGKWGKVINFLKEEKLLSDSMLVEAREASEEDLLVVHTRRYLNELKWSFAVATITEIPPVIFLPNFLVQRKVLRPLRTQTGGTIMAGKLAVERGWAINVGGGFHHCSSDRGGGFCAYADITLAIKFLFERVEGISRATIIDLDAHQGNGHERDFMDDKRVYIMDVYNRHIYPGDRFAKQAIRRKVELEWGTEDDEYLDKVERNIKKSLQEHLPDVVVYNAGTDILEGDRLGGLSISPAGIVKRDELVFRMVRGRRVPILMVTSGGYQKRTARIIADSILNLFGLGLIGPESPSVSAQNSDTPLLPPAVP

Sequence of Human HDAC6 (Q9UBN7 whole entry): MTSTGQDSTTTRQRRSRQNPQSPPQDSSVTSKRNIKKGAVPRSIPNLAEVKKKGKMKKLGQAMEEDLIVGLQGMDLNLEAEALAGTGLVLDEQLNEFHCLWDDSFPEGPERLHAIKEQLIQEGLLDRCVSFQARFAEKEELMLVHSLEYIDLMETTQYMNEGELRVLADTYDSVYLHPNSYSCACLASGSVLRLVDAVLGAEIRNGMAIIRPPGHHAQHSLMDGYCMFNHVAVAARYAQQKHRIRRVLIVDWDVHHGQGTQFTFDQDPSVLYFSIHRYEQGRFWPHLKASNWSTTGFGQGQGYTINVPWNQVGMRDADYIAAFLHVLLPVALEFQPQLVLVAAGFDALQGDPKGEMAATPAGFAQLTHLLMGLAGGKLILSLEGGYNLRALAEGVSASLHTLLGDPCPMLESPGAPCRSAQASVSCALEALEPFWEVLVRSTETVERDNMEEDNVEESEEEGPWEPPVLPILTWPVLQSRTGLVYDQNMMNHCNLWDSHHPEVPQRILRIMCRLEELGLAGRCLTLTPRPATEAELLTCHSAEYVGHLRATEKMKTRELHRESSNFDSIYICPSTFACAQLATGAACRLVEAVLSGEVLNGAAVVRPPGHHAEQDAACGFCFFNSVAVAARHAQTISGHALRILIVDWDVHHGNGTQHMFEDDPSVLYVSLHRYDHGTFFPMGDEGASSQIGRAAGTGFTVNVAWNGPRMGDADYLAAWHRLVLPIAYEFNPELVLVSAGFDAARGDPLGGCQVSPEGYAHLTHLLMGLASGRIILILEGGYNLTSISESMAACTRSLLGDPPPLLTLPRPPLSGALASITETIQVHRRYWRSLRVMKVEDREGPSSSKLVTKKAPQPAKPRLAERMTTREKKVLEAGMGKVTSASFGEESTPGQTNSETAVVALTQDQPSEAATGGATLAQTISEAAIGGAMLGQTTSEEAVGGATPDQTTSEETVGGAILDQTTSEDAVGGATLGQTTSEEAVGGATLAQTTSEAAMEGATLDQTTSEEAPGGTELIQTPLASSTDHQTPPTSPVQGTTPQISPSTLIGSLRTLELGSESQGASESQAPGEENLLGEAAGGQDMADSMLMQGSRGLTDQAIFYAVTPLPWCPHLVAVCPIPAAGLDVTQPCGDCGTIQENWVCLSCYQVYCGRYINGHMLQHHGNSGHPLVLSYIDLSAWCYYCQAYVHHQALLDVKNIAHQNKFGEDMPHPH
Sequence of Human HDAC1 (Q13547 whole entry): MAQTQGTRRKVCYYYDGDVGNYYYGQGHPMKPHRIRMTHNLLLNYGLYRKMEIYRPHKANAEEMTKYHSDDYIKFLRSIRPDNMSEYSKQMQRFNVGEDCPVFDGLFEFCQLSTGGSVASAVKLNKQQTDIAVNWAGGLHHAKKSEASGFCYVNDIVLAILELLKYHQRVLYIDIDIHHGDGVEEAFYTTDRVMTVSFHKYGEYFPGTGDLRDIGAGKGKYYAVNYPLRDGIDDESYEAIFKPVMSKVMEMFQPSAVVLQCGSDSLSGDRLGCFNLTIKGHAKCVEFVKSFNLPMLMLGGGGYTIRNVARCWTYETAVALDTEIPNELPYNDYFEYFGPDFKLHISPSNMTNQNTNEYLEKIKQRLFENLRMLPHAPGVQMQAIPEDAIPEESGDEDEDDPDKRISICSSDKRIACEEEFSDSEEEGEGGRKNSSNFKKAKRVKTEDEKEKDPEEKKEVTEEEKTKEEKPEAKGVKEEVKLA
Sequence of Human HDAC8 (Q9BY41 whole entry): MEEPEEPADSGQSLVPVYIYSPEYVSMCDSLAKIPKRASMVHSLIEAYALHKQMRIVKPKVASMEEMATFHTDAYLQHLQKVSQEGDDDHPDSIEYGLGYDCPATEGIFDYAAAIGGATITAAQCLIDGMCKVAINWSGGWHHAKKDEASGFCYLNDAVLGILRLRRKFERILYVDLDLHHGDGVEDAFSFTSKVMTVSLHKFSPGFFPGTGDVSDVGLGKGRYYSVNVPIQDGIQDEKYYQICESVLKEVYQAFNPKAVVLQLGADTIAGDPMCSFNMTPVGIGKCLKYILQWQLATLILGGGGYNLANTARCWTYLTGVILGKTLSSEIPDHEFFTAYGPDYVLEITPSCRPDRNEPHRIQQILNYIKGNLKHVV

`CN1CCc2c(c3ccccc3n2Cc2ccc(C(=O)NO)cc2)C1` [Tubastatin A, reference compound]: the IC50 in [1] was above 10 µM; in [2] it was above 10 µM; in [3], above 10 µM; in series [4] it was above 10 µM; in series [5], above 10 µM; in series [6] it was 39.9 µM. Besides, the IC50 in series [7] worked out at 46.5 µM.
Consider `O=C(NO)c1ccc(Cn2c(=O)n(CCc3ccccc3)c(=O)c3cc(Cl)ccc32)cc1` [Compound 9, 4-((6-chloro-2,4-dioxo-3-phenethyl-3,4-dihydroquinazolin-1(2H)-yl)methyl)-N-hydroxybenzamide], for which the IC50 in [8] was 18.9 µM; in series [9], 0.035 µM; in [1], 2.45 ± 0.51 µM; in [12] it was 2.71 ± 0.05 µM; in series [2], 2.26 ± 0.13 µM; in series [3], 1.01 ± 0.11 µM. The half-maximal inhibitory concentration (IC50) in series [4] was 4.05 ± 0.12 µM; in series [5], 2.03 ± 0.47 µM; in series [13], 2.78 ± 0.03 µM; in series [14] it was 2.82 ± 0.07 µM. The IC50 at 72 h was found to be 70.34 ± 0.12 µM in [10] and 77.51 ± 0.14 µM in series [11].
`O=C(CCCCCCC(=O)Nc1ccccc1)NO` [SAHA, reference compound]: the figures for the IC50 in [12] and in series [6] were 1.85 ± 0.08 µM and 26.6 µM, respectively.
For `O=C(NO)c1ccc(Cn2c(=O)n(CCc3ccccc3)c(=O)c3ccc(C(F)(F)F)cc32)cc1` [Compound 13, 4-((2,4-dioxo-3-phenethyl-7-(trifluoromethyl)-3,4-dihydroquinazolin-1(2H)-yl)methyl)-N-hydroxybenzamide], the IC50 in series [8] was 8.02 µM; in series [15], 1.44 µM; in [9] it was 0.635 µM; in series [16], 7.39 µM; in [1], 7.22 ± 0.29 µM; in series [12] it was 0.87 ± 0.12 µM. Also, the IC50 in [2] was 5.87 ± 0.14 µM; in series [3] it was 5.92 ± 0.21 µM; in series [4], 8.29 ± 0.43 µM; in series [5], 5.48 ± 0.27 µM; in [13], 0.83 ± 0.11 µM; in [14] it was 0.92 ± 0.07 µM. Besides, the IC50 at 72 h in series [10] came to 131.7 ± 0.25 µM; in [11], 146.2 ± 0.41 µM.
In the case of `COc1ccccc1CCn1c(=O)c2ccccc2n(Cc2ccc(C(=O)NO)cc2)c1=O` [Compound 15, N-hydroxy-4-((3-(2-methoxyphenethyl)-2,4-dioxo-3,4-dihydroquinazolin-1(2H)-yl)methyl)benzamide], the IC50 in [15] amounted to 0.525 µM; in [9], 0.011 µM; in series [16], 34.4 µM; in [1], 5.69 ± 0.21 µM; in [12] it was 1.22 ± 0.08 µM; in [2] it was 7.08 ± 0.8 µM. The IC50 in series [3] is 5.71 ± 0.32 µM; in series [4], above 10 µM; in [5] it was 7.11 ± 0.28 µM; in [13] it was 1.65 ± 0.03 µM; in series [14], 1.47 ± 0.07 µM. Moreover, the IC50 at 72 h in [10] amounted to 55.44 ± 0.09 µM; in series [11], 96.92 ± 0.11 µM.
With `N#Cc1ccc2c(=O)n(CCc3ccccc3)c(=O)n(Cc3ccc(C(=O)NO)cc3)c2c1` [Compound 3, 4-((7-cyano-2,4-dioxo-3-phenethyl-3,4-dihydroquinazolin-1(2H)-yl)methyl)-N-hydroxybenzamide], the IC50 in [8] was 12 µM; in series [15], 1.3 µM; in [9], 13.5 µM; in [1], above 10 µM; in series [12], above 10 µM; in [2], above 10 µM. Also, the IC50 in [3], in series [4], in [5], in series [13] and in [14] was above 10 µM in each case. For the same molecule, the figures for the IC50 at 72 h in series [10] and in series [11] were above 200 µM and above 10 µM, respectively.
Take `O=C(NO)c1ccc(Cn2c(=O)n(CCc3ccccc3)c(=O)c3ccccc32)cc1` [Compound 5, 4-((2,4-dioxo-3-phenethyl-3,4-dihydroquinazolin-1(2H)-yl)methyl)-N-hydroxybenzamide]: the IC50 in series [8] was 11.2 µM; in [15], 0.376 µM; in series [9], 0.004 µM; in [16] it was 13.9 µM; in series [1] it was 3.75 ± 0.39 µM; in series [12] it was 0.25 ± 0.03 µM. For the same molecule, the IC50 in [2] was 1.56 ± 0.14 µM; in series [3], 0.44 ± 0.07 µM; in series [4] it was 4.15 ± 0.27 µM; in series [5] it was 1.93 ± 0.25 µM; in [13], 0.17 ± 0.05 µM; in series [14] it was 0.16 ± 0.03 µM. Besides, the results for the IC50 at 72 h in series [10] and in series [11] were 83.21 ± 0.62 µM and 91.38 ± 0.47 µM, respectively.

What is called IC50 is the concentration at which inhibition is half-maximal.
